Reference: patent publication US4716162A, “Fused 5 ring heterocyclic compounds, their preparation, and their anti-arrhythmic and diuretic use” (Sankyo Company, Limited, priority 1984, dated 1987)
Converted amounts (≈) assume the structure as drawn. Where a name gives a salt, the structure may show the parent alone.

test system: male mice of the DDY strain; test: Diuretic effect: urine volume and sodium ion concentration by the filter paper method (Mineshita et al); format: in vivo; details: 100 mg/kg p.o.
Description: The diuretic test was performed on groups of 5 male mice of the DDY strain, each weighing between 26 and 30 g. The test solutions were prepared by dissolving the test compounds in physiological saline containing 0.3% w/v carboxymethylcellulose and were administered orally to the animals. The urine volume and sodium ion concentration were estimated by the filter paper method [Mineshita et al: Pharmacometrics, 4, 33 (1970)]. In Table 13, the increase of the urine volume and sodium ion concentration are shown as a percentage of the values of a control group to which no active compound was administered.

Compared with `O=C(O)[C@@H]1C=C2c3ccccc3N3C(=O)C[C@H]4CC[C@@H]1[C@H]4[C@H]23` (relative stereo) [Compound No. 14, 1,2,2aβ,3α,11,11aβ,11bβ,11cα-Octahydro-10-oxo-10H-cyclopenta[d,e]indolo[3,2,1-i,j]quinoline-3α-carboxylic acid], `O=C(O)[C@@H]1C=C2c3cc(Br)ccc3N3C(=O)C[C@H]4CC[C@@H]1[C@H]4[C@H]23` (relative stereo) [Compound No. 18] is lower in “Urine Volume (increase as a percentage of the values of a control group)” value: 231% for the first, 86% for the second.

Compared with `O=C(O)[C@@H]1C=C2c3ccccc3N3C(=O)C[C@H]4CC[C@@H]1[C@H]4[C@H]23` (relative stereo) [Compound No. 14, 1,2,2aβ,3α,11,11aβ,11bβ,11cα-Octahydro-10-oxo-10H-cyclopenta[d,e]indolo[3,2,1-i,j]quinoline-3α-carboxylic acid], `O=C(O)[C@@H]1C=C2c3cc(Br)ccc3N3C(=O)C[C@H]4CC[C@@H]1[C@H]4[C@H]23` (relative stereo) [Compound No. 18] is lower in “δNa^+ (increase of sodium ion concentration as a percentage of the values of a control group)” value: 245% for the first, 168% for the second.

test system: arrhythmias induced by ischemic cardiac dysfunction caused by ligation of the coronary arteries of a perfusing heart; test: Anti-arrhythmic effect: protection against arrhythmias induced by ischemia (coronary artery ligation and re-perfusion) of a perfusing heart, method of Opie et al; design: species or system male rats of Sprague-Dawley strain; details: Rattus norvegicus, read-out: ED70 (concentration required for 70% suppression of the arrhythmias during ligation and after re-perfusion)
Description: The test was performed according to the method of L. H. Opie et al [Cardiovascular Research, 12, 212 (1978)] using male rats of Sprague-Dawley strain weighing between 230 and 330 g. The antiarrhythmic effect was estimated by the ability of the test compound administered intravascularly to protect against the arrhythmias induced by ischemic cardiac dysfunction caused by ligation of the coronary arteries of a perfusing heart.
The test compounds were dissolved in dimethyl sulfoxide, and the required amount of injectible solution was prepared by mixing this with Krebs-Henseleit solution. The degree of protecting effect is reported as the concentration (ED70) required for 70% suppression of the arrhythmias during ligation and after re-perfusion.

With `COC(=O)[C@@H]1Cc2c3n(c4ccccc24)C(=O)C[C@H]2CC[C@@H]1[C@@H]32` (relative stereo) [Compound No. 35, Methyl 1,2,2aβ,3α,4,11,11aβ,11bβ-octahydro-10-oxo-10H-cyclopenta[d,e]indolo[3,2,1-i,j]quinoline-3β-carboxylate] the EC70 was 4.2 µg/mL (≈ 13.6 µM).

same assay, conditions: rat perfusing heart, test compound administered intravascularly; read-out: ED70 (concentration required for 70% suppression of the arrhythmias during ligation and after re-perfusion)

`C[C@@]12C3=C[C@@H](N)[C@@H]4CC[C@H](CC(=O)N1c1ccccc13)[C@@H]42` (relative stereo) [Compound No. 26, 3β-Amino-1,2,2aβ,3α,11,11aβ,11bβ,11cα-octahydro-11cα-methylcyclopenta[d,e]indolo[3,2,1-i,j]quinolin-10-one hydrochloride] and `N[C@@H]1Cc2c3n(c4ccccc24)C(=O)C[C@H]2CC[C@@H]1[C@@H]32` (relative stereo) [Compound No. 55, 3β-Amino-1,2,2aβ,3α,4,11,11aβ,11bβ-octahydrocyclopenta[d,e]indolo[3,2,1-i,j]quinolin-10-one maleate] are within 1.5-fold of each other in EC70: 0.9 µg/mL for the first, 0.64 µg/mL for the second.

`CC[C@@]12CC[C@H]3[C@H](N)Cc4c(n(c5ccccc45)C(=O)C1)[C@H]32` (relative stereo) [Compound No. 59] and `CC[C@@]12CCC[C@H]3[C@H](N)Cc4c(n(c5ccccc45)C(=O)C1)[C@H]32` (relative stereo) [Compound No. 110] are within 1.5-fold of each other in EC70: 0.23 µg/mL (≈ 0.781 µM) for the first, 0.16 µg/mL (≈ 0.519 µM) for the second.

Compared with `CN(C)[C@@H]1Cc2c3n(c4ccccc24)C(=O)C[C@H]2CC[C@@H]1[C@@H]32` (relative stereo) [Compound No. 65, 1,2,2aβ,3α,4,11,11aβ,11bβ-Octahydro-3β-dimethylaminocyclopenta[d,e]indolo[3,2,1-i,j]quinolin-10-one maleate], `N[C@@H]1Cc2c3n(c4ccccc24)C(=O)C[C@H]2CCC[C@@H]1[C@@H]32` (relative stereo) [Compound No. 106, 4β-amino-2,3,3aβ,4α,5,12,12aβ,12bβ-octahydrobenzo[d,e]indolo[3,2,1-i,j]quinolin-11(1H)-one maleate] is 3.3-fold higher in EC70: 0.3 µg/mL for the first, 1 µg/mL for the second.

First: N[C@@H]1Cc2c3n(c4ccccc24)C(=O)C[C@H]2CCCC[C@@H]1[C@@H]32 (relative stereo) [Compound No. 228]
Second: CC(C)N(CCC(C(N)=O)(c1ccccc1)c1ccccn1)C(C)C (centres unmarked) [Disopyramide, reference compound]
The EC70 of the first is 11-fold lower: 0.9 µg/mL (≈ 3.06 µM) for the first, 10 µg/mL (≈ 29.5 µM) for the second.

`CCN(CC)CC(=O)Nc1c(C)cccc1C` [Lidocaine, reference compound] showed an EC70 of 5 µg/mL (≈ 21.3 µM).

test system: rats with ischemic brains; test: Improvement of brain function: time until recovery of the righting reflex in rats with ischemic brains; format: in vivo, male rats of the Wistar strain; details: 10 mg/kg i.p.
Description: A test for recovery of brain function was performed using rats with ischemic brains. The bilaterial carotid arteries of male rats of the Wistar strain were ligated under anesthesia with thiopental (50 mg/kg, intraperitoneally) and the test compounds and a 0.5% w/v carboxymethylcellulose solution (vehicle) were intraperitoneally administered at the same time. The time until recovery of the righting relex was measured to give an index of the brain function. […] The known compound, Pentoxifylline, was tested in the same way, for comparison.

In the case of `O=C(O)[C@@H]1C=C2c3cc(Br)ccc3N3C(=O)C[C@H]4CC[C@@H]1[C@H]4[C@H]23` (relative stereo) [Compound No. 18], the “Ratio to Control (time until recovery of the righting reflex)” value is reported as 0.84.

same assay, conditions: 30 mg/kg i.p.

Compared with `O=C(O)[C@@H]1C=C2c3cc(Br)ccc3N3C(=O)C[C@H]4CC[C@@H]1[C@H]4[C@H]23` (relative stereo) [Compound No. 18], `CC(=O)CCCCn1c(=O)c2c(ncn2C)n(C)c1=O` [Pentoxifylline, reference compound] is higher in “Ratio to Control (time until recovery of the righting reflex)” value: 0.68 for the first, 0.82 for the second.

test system: heart beat rate in the ventricle of mice placed in chloroform gas; test: Anti-arrhythmic effect, Block's method (chloroform-induced, ventricular heart beat rate by electrocardiogram); format: in vivo, mice (ICR strain); details: Mus musculus, ip, read-out: ED50 % (effective = heart beat rate in the ventricle reduced to less than 400 beats/minute)
Description: Test procedures: (Block's method)
Onto a 2 liter desiccator were placed 150 ml of chloroform and this was stirred with a magnetic stirrer while being heating by an incandescent lamp. When the desiccator was saturated with chloroform gas, mice (ICR strain, body weight between 20 and 25 g) were placed therein for 2 minutes and then the chest was opened. Silver dipolar electrodes were contacted with the ventricles and electrocardiograms were taken for 1 minute. Within 10-20 minutes, the test compound was administered intraperitoneally in a carboxymethyl-cellulose solution as vehicle.

Compared with `CCC[C@@]12CCC[C@H]3[C@H](N)Cc4c(n(c5ccccc45)C(=O)C1)[C@H]32` (relative stereo) [Compound No. 96], `CC[C@@]12CCC[C@H]3[C@H](N)Cc4c(n(c5ccccc45)C(=O)C1)[C@H]32` (relative stereo) [Compound No. 110] is 3.9-fold higher in ED50: 3.6 mg/kg for the first, 14 mg/kg for the second.

`CC[C@]12CCC[C@@H]3[C@H]1c1c(c4cc(O)ccc4n1C(=O)C2)C[C@H]3C(=O)NNCCN1CCCC1` (relative stereo) [Compound No. 146, 7-Hydroxy-12aβ-ethyl-4β-{3-[2-(1-pyrrolidinyl)ethyl]carbazoyl}-2,3,3aβ,4α,5,12,12aβ,12bβ-octahydrobenzo[d,e]indolo[3,2,1-i,j]quinolin-11(1H)-one hemihydrate] and `CC[C@@]12CCC[C@H]3[C@H](N)Cc4c(n(c5ccc(O)cc45)C(=O)C1)[C@H]32` (relative stereo) [Compound No. 197, 4β-Amino-12aβ-ethyl-7-hydroxy-2,3,3aβ,4α,5,12,12aβ,12bβ-octahydrobenzo[d,e]indolo[3,2,1-i,j]quinolin-11(1H)-one hemihydrate] are the same in ED50: 22.5 mg/kg for the first, 22.5 mg/kg for the second.

Compared with `N[C@@H]1Cc2c3n(c4ccc(O)cc24)C(=O)C[C@@]2(c4ccccc4)CCC[C@@H]1[C@@H]32` (relative stereo) [Compound No. 162], `CCC[C@@]12CCC[C@H]3[C@H](N)Cc4c(n(c5ccc(O)cc45)C(=O)C1)[C@H]32` (relative stereo) [Compound No. 198] is 2.9-fold lower in ED50: 12 mg/kg for the first, 4.2 mg/kg for the second.
